This is an account of results in PubChem BioAssay (NCI).

Among the test systems are EKVX NSCLC; HCC-2998 colon; KM20L2 colon; M19-MEL melanoma; MCF7 breast; MDA-MB-231 breast; NCI/ADR-RES ovarian; OVCAR-5 ovarian; RPMI-8226 leukemia; SK-MEL-5 melanoma; UACC-62 melanoma.
What all share (test): DTP human tumour cell line panel, 48 h

Where “and” joins values, the source holds several entries; their conditions need not be identical. Equal values may be shown once.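 Briefly, cells in 96-well plates were exposed to five compound concentrations for 48 h, and endpoints were estimated by linear interpolation. The concentration for 50% growth inhibition is given as GI50. TGI is the concentration that stops growth completely.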

As to `CC(=O)C1(O)Cc2c(O)c3c(c(O)c2C(OC2CC(N)C(O)C(C)O2)C1)C(=O)c1ccccc1C3=O` (stereo not drawn), the GI50 with EKVX NSCLC was 82.6 nM; in the experiment on HCC-2998 colon, 19.8 nM; in the experiment with MDA-MB-231 breast it was 94.8 nM; with OVCAR-5 ovarian it was 26.1 nM; in the experiment with RPMI-8226 leukemia, 30.5 nM and < 13.1 nM; with SK-MEL-5 melanoma, less than 11.9 nM. Besides, in the experiment with UACC-62 melanoma, the GI50 is less than 12.3 nM. For the same compound, the TGI in the experiment on EKVX NSCLC is 811 nM; with HCC-2998 colon it was 257 nM and 75.8 nM; in the experiment with KM20L2 colon, 203 nM; in the experiment with M19-MEL melanoma, 121 nM; in the experiment on MCF7 breast it was 1500 nM; in the experiment on MDA-MB-231 breast, 1220 nM. The TGI in the experiment with NCI/ADR-RES ovarian was 4880 nM; in the experiment on OVCAR-5 ovarian it was 842 nM and 230 nM; with RPMI-8226 leukemia, 350 nM and 96.8 nM; with SK-MEL-5 melanoma, 330 nM and 69.7 nM; in the experiment on UACC-62 melanoma, 306 nM and 84.2 nM.
